Laboratory results reported in patent US10710988B2, “Piperazine derivative” (Astellas Pharma Inc., priority 2016, dated 2020).

Assays:
Format in all cases: cell-based
human MC4 receptor = target: T1, human MC4 receptor (Homo sapiens, UniProt P32245); assay: Human MC4 receptor activation, cAMP production in cells transiently expressing the receptor; details: FreeStyle 293-F cells expressing human MC4 receptor, α-MSH maximum = 100%
T1 construct: expressed in transfected cells; host or cells: FreeStyle 293-F cells (transient, electroporation)
T1 sequence (P32245 whole entry): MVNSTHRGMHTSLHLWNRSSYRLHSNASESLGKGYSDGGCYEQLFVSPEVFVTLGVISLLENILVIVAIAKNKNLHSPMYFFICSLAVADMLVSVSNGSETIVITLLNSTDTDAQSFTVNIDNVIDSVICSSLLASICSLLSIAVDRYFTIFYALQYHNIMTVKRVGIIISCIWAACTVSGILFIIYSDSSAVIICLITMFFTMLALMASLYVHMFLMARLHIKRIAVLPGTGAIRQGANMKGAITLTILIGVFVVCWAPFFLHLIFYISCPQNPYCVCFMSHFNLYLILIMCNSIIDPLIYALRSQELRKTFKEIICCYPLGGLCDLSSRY
Description: (§1) (1) Construction of Human MC Receptor-Expressing Vector
(§2) A human MC4 receptor gene (GenBank Accession No.: NM_005912.2), a human MC1 receptor gene (GenBank Accession No.: NM_002386.3), or a human MC3 receptor gene (GenBank Accession No.: NM_019888.3) was introduced into an expression vector pcDNA™ 3.1N/V5-His TOPO (registered trademark) (Thermo Fisher Scientific Inc).
(§3) (2) Construction of Cells Transiently Expressing Human MC Receptor
(§4) An expression vector for a human MC4, MC1, or MC3 receptor was introduced into FreeStyle™ 293-F cells (Thermo Fisher Scientific Inc., product number: R790-07). For the introduction, electroporation was employed. That is, 1×10^7 FreeStyle™ 293-F cells were suspended in 80 μL of an Electroporation Buffer (Thermo Fisher Scientific Inc., product number: B201-100), and 20 μg of the expression vector was added thereto. The resultant was put into a cuvette (OC-100 Processing Assembly, MaxCyte, Inc.) and electroporated with MaxCyte STX (registered trademark) (MaxCyte, Inc.). The cells were cultured for a day, suspended in a Cell Banker (registered trademark) 1 (TAKARA BIO INC. or JUJI FIELD Inc., product number: BLC-1), and stored frozen until they were used.
(§5) (3) Measurement of Amount of cAMP Production
(§6) Measurement was carried out by using a LANCE (registered trademark) Ultra cAMP Kit (PerkinElmer, Inc.) in accordance with the attached instructions. That is, after dissolution in DMSO, the test compound (a final concentration of 1 pM to 30 μM) diluted with an assay buffer (Hank's balanced salt solution, 5 mM 4-(2-hydroxyethyl)-1-piperazineethanesulfonic acid (HEPES), 0.5 mM 3-isobutyl-1-methylxanthine (IBMX), 0.1% bovine serum albumin, pH 7.4), or α-MSH (Bachem Inc., a final concentration of 1 pM to 30 μM) was added to OptiPlate-384 (PerkinElmer, Inc.). Furthermore, the suspension of the cells transiently expressing the human MC4, MC1, or MC3 receptor prepared using the assay buffer was added thereto at 1,000 cells/well, and then left to stand at room temperature for about 1 hour. Thereafter, an Eu-cAMP tracer solution and an ULight™-anti-cAMP solution were added thereto, and then the resulting solution was left to stand at room temperature for about 1 hour. The amount of cAMP was calculated using EnVision (registered trademark) (PerkinElmer Inc.).
(§7) For the agonistic activity, the efficacy (EC50 (μM)) was calculated by a non-linear regression method with a Sigmoid-Emax model, by defining the maximum reaction using α-MSH as 100% and the reaction using the vehicle alone as 0%, respectively.

human MC3 receptor = target: T2, human MC3 receptor (Homo sapiens, UniProt P41968); assay: Human MC3 receptor activation, cAMP production in cells transiently expressing the receptor; details: FreeStyle 293-F cells expressing human MC3 receptor, α-MSH maximum = 100%
T2 construct: expressed in transfected cells; host or cells: FreeStyle 293-F cells (transient, electroporation)
T2 sequence (P41968 whole entry): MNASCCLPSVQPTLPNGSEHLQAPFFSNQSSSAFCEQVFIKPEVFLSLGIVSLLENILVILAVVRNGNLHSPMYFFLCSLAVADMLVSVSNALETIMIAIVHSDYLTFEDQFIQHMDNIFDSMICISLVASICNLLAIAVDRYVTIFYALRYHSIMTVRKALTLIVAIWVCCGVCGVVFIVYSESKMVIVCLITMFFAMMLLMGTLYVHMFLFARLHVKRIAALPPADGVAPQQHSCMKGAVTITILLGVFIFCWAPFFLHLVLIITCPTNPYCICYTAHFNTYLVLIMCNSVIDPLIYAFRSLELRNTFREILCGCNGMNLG
Description: as §1, §2, §3, §4, §5, §6, §7

rat MC4 receptor = target: T3, rat MC4 receptor (Rattus norvegicus, UniProt P70596); assay: Rat MC4 receptor activation, cAMP production in cells transiently expressing the receptor; details: FreeStyle 293-F cells expressing rat MC4 receptor, α-MSH maximum = 100%
T3 construct: expressed in transfected cells; host or cells: FreeStyle 293-F cells (transient, electroporation)
T3 sequence (P70596 whole entry): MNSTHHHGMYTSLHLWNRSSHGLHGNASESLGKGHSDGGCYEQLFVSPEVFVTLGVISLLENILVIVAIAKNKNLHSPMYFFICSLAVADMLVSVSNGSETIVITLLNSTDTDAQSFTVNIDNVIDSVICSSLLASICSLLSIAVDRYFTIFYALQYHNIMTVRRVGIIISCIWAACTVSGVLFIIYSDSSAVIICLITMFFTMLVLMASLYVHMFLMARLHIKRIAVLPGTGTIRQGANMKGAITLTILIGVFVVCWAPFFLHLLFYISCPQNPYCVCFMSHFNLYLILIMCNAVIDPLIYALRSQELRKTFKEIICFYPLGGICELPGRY
Description: (1) Construction of Rat MC4 Receptor-Expressing Vector
A rat MC4 receptor gene (GenBank Accession No.: NM_013099.3) was introduced into an expression vector pcDNA™ 3.1N/V5-His TOPO (registered trademark) (Thermo Fisher Scientific Inc.).
(2) Construction of Cells Transiently Expressing Rat MC4 Receptor
as §4, with “rat MC4” for “human MC4, MC1, or MC3”, “Inc.).” for “Inc., product number: R790-07).”, “electroporation buffer” for “Electroporation Buffer”, “Inc.),” for “Inc., product number: B201-100),”, “Inc.),” for “Inc., product number: BLC-1),”
as §5
Measurement was carried out in accordance with the attached instructions, using a LANCE (registered trademark) Ultra cAMP Kit (PerkinElmer, Inc.). That is, after dissolution in DMSO, the test compound (a final concentration of 1 pM to 30 μM) diluted with an assay buffer (Hank's balanced salt solution, 5 mM HEPES, 0.5 mM IBMX, 0.1% bovine serum albumin, pH 7.4), or α-MSH (Bachem Inc., a final concentration of 1 pM to 30 μM) was added to OptiPlate-384 (PerkinElmer, Inc.). Furthermore, the suspension of the cells transiently expressing the rat MC receptor that was prepared using the assay buffer was added thereto at 1,000 cells/well, and then left to stand at room temperature for about 1 hour. Thereafter, an Eu-cAMP tracer solution and an ULight™-anti-cAMP solution were added thereto, and the resulting solution was left to stand at room temperature for about 1 hour. The amount of cAMP was calculated using EnVision (registered trademark) (PerkinElmer Inc).
For the agonistic activity, an efficacy (EC50 (μM)) was calculated by a non-linear regression method with a Sigmoid-Emax model, by defining the maximum reaction using α-MSH as 100% and the reaction using a vehicle alone as 0%, respectively.

| SMILES | EC50 (human MC4 receptor) [µM] | EC50 (human MC3 receptor) [µM] | EC50 (rat MC4 receptor) [µM] |
| --- | --- | --- | --- |
| CC(=O)N[C@@H](CC(C)C)C(=O)N1CCN(C(=O)[C@@H]2CN(C(C)(C)C)C[C@H]2c2ccc(Cl)cc2F)C[C@H]1C [Example 5] | 0.006 | 0.55 | 0.0033 |
| CC(=O)N[C@H](C(=O)N1CCN(C(=O)[C@@H]2CN(C(C)(C)C)C[C@H]2c2ccc(F)cc2F)[C@@H](C)C1)C1CCCCC1.Cl [Example 6, N-{(1S)-2-[(3S)-4-{[(3S,4R)-1-tert-butyl-4-(2,4-difluorophenyl)pyrrolidin-3-yl]carbonyl}-3-methylpiperazin-1-yl]-1-cyclohexyl-2-oxoethyl}acetamide monohydrochloride] | 0.019 | 1.8 | 0.016 |
| CC(=O)N[C@@H](CC(C)(C)C)C(=O)N1C[C@H](C)N(C(=O)C2CN(C(C)(C)C)CC2c2ccc(F)cc2)C[C@H]1C.Cl (stereo partly drawn) [Example 11] | 0.011 | 0.89 | 0.01 |

The remaining molecules from weak to strong by EC50 (human MC4 receptor), led by results:

| EC50 (human MC4 receptor) [µM] | EC50 (human MC3 receptor) [µM] | EC50 (rat MC4 receptor) [µM] | SMILES |
| --- | --- | --- | --- |
| 0.01 | 1 | 0.0047 | CC(=O)N[C@@H](CC(C)(C)C)C(=O)N1CCN(C(=O)[C@@H]2CN(C(C)(C)C)C[C@H]2c2ccc(F)cc2F)[C@@H](C)C1.Cl [Example 8] |
| 0.0068 | 0.27 | 0.002 | CC(=O)N[C@@H](CC(C)(C)C)C(=O)N1C[C@H](C)N(C(=O)[C@@H]2CN(C(C)(C)C)C[C@H]2c2ccc(F)cc2F)C[C@H]1C.Cl [Example 4, N-{(2S)-1-[(2R,5S)-4-{[(3 S,4R)-1-tert-butyl-4-(2,4-difluorophenyl)pyrrolidin-3-yl]carbonyl}-2,5-dimethylpiperazin-1-yl]-4,4-dimethyl-1-oxopentan-2-yl}acetamide monohydrochloride] |
